ChEMBL document CHEMBL1201862, “PubChem BioAssay data set” (2004)
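1) Cells in 96-well plates. 2) Compound, 48 h, 5 concentrations. 3) Linear interpolation between surrounding doses. 4) Unreached endpoint = highest concentration. Abbreviation: GI50, concentration required for 50% inhibition of growth.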 Active and inactive are the calls of the source. Rule as the data show it: active = GI50 up to about 1.1 µM and inactive = higher.

Experiments:
Assay in all cases: growth of human tumour cells (NCI), 48 h
[1] = system: DMS-114
[2] = system: Malme-3M
[3] = system: EKVX
[4] = system: HL-60
[5] = system: UO-31
[6] = system: SNB-75
[7] = system: NCI-H23
[8] = system: TK-10
[9] = system: SK-MEL-2

Measured: GI50

CCOC(=O)C(C#N)(Cc1c[nH]c2ccccc12)NC(C)=O (centres undefined)
inactive: [1] > 100 µM | [2] > 100 µM | [3] > 100 µM | [4] > 100 µM | [5] > 100 µM | [6] > 100 µM | [7] > 100 µM | [8] > 100 µM | [9] > 100 µM
